The values that follow come from patent US7671061B2, “Methods and compositions for treating pain” (Hydra Biosciences, Inc., priority 2005, dated 2010).

A value given as a limit tells only on which side of the number the result lay.

Usually IC50 stands for the concentration needed to halve the response being measured.

The target of this test is T1, hTRPA1 (Homo sapiens, UniProt O75762, K186N).
T1 construct: expressed in transfected cells; host or cells: HEK293/TREx (Invitrogen), induced with tetracycline
T1 sequence (O75762 whole entry K186N): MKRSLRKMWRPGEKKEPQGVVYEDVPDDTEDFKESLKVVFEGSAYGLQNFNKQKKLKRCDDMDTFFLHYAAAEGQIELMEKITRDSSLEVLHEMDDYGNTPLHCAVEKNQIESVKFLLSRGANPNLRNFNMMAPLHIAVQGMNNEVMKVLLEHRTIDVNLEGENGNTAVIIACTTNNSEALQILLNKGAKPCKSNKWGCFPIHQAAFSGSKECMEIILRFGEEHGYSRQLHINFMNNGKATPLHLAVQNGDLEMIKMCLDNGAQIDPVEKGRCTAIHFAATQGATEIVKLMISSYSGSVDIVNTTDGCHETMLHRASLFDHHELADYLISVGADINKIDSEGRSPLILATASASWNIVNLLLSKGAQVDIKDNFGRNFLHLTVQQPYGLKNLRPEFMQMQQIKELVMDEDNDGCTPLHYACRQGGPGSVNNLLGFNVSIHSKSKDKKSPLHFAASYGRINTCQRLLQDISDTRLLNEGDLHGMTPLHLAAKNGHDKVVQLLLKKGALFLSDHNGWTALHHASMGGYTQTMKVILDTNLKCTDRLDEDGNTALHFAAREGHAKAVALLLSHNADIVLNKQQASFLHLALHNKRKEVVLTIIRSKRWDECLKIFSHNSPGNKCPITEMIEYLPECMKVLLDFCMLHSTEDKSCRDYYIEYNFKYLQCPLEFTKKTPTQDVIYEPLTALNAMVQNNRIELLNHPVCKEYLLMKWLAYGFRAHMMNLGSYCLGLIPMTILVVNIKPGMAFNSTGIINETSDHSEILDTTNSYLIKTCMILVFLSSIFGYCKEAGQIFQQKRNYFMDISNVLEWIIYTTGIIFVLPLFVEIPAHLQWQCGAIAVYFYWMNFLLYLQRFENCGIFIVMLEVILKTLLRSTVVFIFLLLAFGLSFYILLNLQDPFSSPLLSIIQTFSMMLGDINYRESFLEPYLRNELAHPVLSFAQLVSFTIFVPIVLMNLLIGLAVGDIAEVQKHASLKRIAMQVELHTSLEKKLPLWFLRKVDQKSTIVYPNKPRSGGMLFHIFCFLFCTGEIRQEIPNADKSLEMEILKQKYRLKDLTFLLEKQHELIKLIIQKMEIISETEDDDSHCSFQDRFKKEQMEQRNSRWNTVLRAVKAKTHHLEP
Put plainly: High throughput Ca2+ fluorescence (Fluo4) assay, AITC stimulation. Format: cell-based. The following applies: Table 1; read-out: hTRPA1 Fluo4 IC50. The source says: The assay depended on detection of the rise in intracellular Ca^2+ concentration ([Ca^2+]i) following channel activation in cells inducibly expressing the TRPA1 channel. Ca^2+ rise was quantified with the use of fluorescent Ca^2+ indicators that were loaded into cells and thereafter indicated the [Ca^2+]i. Ca^2+ influx followed activation of the TRPA1 channel. Compounds inhibiting the [Ca^2+]i rise were considered hits for further investigation.
These cells were maintained in the growth medium recommended by the manufacturer supplemented with 100 μg/ml hygromycin to promote retention of the TRPA1 construct. After growing to near confluency, cells were plated at a density of ˜25,000 cells/well in 384 well CellBind plates (Corning) in the presence of 1 μg/ml tetracycline, and allowed to grow for 20-30 hrs. A nearly confluent monolayer resulted. Cells were then loaded with Ca^2+ dye: Fura-2/AM or Fluo4/AM was added to the wells to a final concentration of 2 μM or 1 μM, respectively, and incubated for 80 min or 60 min, respectively, at room temperature. […] Frames were acquired at a rate of 0.2 Hz. During the assay, the plates were continuously […], with pipette mixing of wells following addition of each reagent. For the screening assay, 13 μl of a diluted stock (at 50 μM) was added to each well for 2 minutes following the collection of a short (4 frame) baseline. […] Data was collected for ˜3 minutes following addition of AITC, where the fluorescent intensity (for Fluo4) and the F340/F380 ratio (for Fura-2) were proportional to the [Ca^2+]i. Negative controls consisted of HEK293/TREx TRPA1 cells exposed to AITC, but no compound. […] These controls defined a screening window, and “hits” were defined as those compounds inhibiting the fluorescence response by at least 40%. IC50 values were determined for compounds defined as “hits.” The Fluo4 cell-based fluorescence assay was used to determine the intracellular Ca^2+ concentration in the presence of varying drug concentration. […] Compounds were tested in triplicate at all concentrations. Standard software was used to fit IC50 curves.
Regarding `CC1=C(C(=O)N2CCOCC2)C(c2ccc(F)cc2)NC(=O)N1` (stereo not shown), the IC50 was > 10 µM. The value for `CC1=C(C(=O)N2CCOCC2)C(c2cccc(Br)c2)NC(=O)N1` (stereo not shown) was > 10 µM.

Consider `CCN(CC)C(=O)C1=C(C)NC(=S)NC1c1ccc(F)cc1` (stereo not shown), for which the IC50 is > 10 µM. For `CCOC(=O)C1=C(c2ccccc2)N(C)C(=O)NC1c1ccccc1F` (stereo not shown) the value was > 10 µM. The value for `CCOC(=O)C1=C(c2ccccc2)NC(=O)NC1c1ccccc1Cl` (stereo not shown) was > 10 µM; that for `CC1=C(C(=O)OC(C)C)C(c2ccccc2Cl)NC(=S)N1` (stereo not shown) was ≤ 10 µM; that for `CC1=C(C(=O)OCC(C)C)C(c2ccccc2C(F)(F)F)NC(=O)N1` (stereo not shown) was ≤ 5 µM. The value for `CC1=C(C(=O)OC2CCC(C)CC2)C(c2ccc(N(C)C)cc2)NC(=O)N1` (stereo not shown) was > 10 µM; that for `C=CCOC(=O)C1=C(C)NC(=S)NC1c1ccccc1OCC` (stereo not shown) was > 10 µM. In the case of `CC1=C(C(=O)Nc2ccc(Br)cc2)C(c2ccccc2)NC(=O)N1C` (stereo not shown), the IC50 is > 10 µM. The value for `CC1=C(C(=O)OCCC(C)C)C(c2ccc(Cl)c(Cl)c2)NC(=O)N1` (stereo not shown) was > 10 µM. For `CC1=C(C(=O)OCCc2ccccc2)C(c2ccccc2)NC(=O)N1` (stereo not shown) the value was > 10 µM. For `CCOC(=O)C1=C(C)N(C)C(=S)NC1c1ccccc1` (stereo not shown) the value was > 10 µM; for `CCOC(=O)C1=C(c2ccc(N(C)C)cc2)NC(=O)NC1c1ccccc1` (stereo not shown), ≤ 1 µM. As to `COc1ccc(C2NC(=O)N(C)C(C)=C2C(=O)Nc2ccccc2C)cc1` (stereo not shown), the concentration for half-maximal inhibition (IC50) was > 10 µM. In the case of `CC1=C(C(=O)OCc2ccccc2)C(c2ccccc2F)NC(=O)N1` (stereo not shown), the concentration for half-maximal inhibition (IC50) is > 10 µM. For `CCCOC(=O)C1=C(C)NC(=O)NC1c1ccc(N(CC)CC)cc1` (stereo not shown) the value was > 10 µM; for `CC1=C(C(=O)OCc2ccc(C)cc2)C(c2ccc(F)cc2)NC(=O)N1` (stereo not shown), > 10 µM; for `CC1=C(C(=O)OC(C)C)C(c2cccc(Cl)c2)NC(=O)N1` (stereo not shown), > 10 µM.

On to `CC1=C(C(=O)OCCc2ccccc2)C(c2ccc(Cl)cc2)NC(=O)N1` (stereo not shown), for which the IC50 is ≤ 5 µM.

For `CC1=C(C(=O)OC2CCCCC2)C(c2ccc(F)cc2)NC(=O)N1` (stereo not shown), the 50% inhibitory concentration (IC50) is > 10 µM. The value for `C=CCOC(=O)C1=C(C)NC(=O)NC1c1ccc(F)cc1` (stereo not shown) was > 10 µM; that for `CC1=C(C(=O)OC(C)C)C(c2cccc(Br)c2)NC(=O)N1` (stereo not shown) was > 10 µM; that for `CC1=C(C(=O)OC(C)C)C(c2ccc(Cl)cc2)NC(=O)N1` (stereo not shown) was > 10 µM. For `CCCCCOC(=O)C1=C(C)NC(=O)NC1c1cccc(Br)c1` (stereo not shown) the value was > 10 µM. For `CCC(C)OC(=O)C1=C(C)NC(=O)NC1c1ccccc1Cl` (stereo not shown) the value was > 10 µM; for `C=CCOC(=O)C1=C(C)NC(=O)NC1c1ccc(N(CC)CC)cc1` (stereo not shown), > 10 µM; for `C=CCOC(=O)C1=C(C)NC(=O)NC1c1ccc(C)cc1` (stereo not shown), ≤ 5 µM. Take `CC1=C(C(=O)OCC(F)(F)F)C(c2ccc(N(C)C)cc2)NC(=O)N1` (stereo not shown): the IC50 was > 10 µM. For `CCCOC(=O)C1=C(C)NC(=O)NC1c1cccc2ccccc12` (stereo not shown) the value was > 10 µM; for `CCCCCOC(=O)C1=C(C)NC(=S)NC1c1ccccc1` (stereo not shown), > 10 µM; for `C=CCOC(=O)C1=C(C)NC(=O)NC1c1ccc(CC)cc1` (stereo not shown), > 10 µM. The value for `CC1=C(C(=O)OCC2CCCCC2)C(c2ccccc2F)NC(=O)N1` (stereo not shown) was > 10 µM; that for `CCCCOC(=O)C1=C(C)NC(=O)NC1c1ccc(C)cc1` (stereo not shown) was > 10 µM; that for `CC1=C(C(=O)OCCc2ccccc2)C(c2ccc(F)cc2)NC(=O)N1` (stereo not shown) was > 10 µM.

Take `CC1=C(C(=O)OCC(Cl)(Cl)Cl)C(c2ccccc2)NC(=O)N1` (stereo not shown): the IC50 is > 10 µM. The value for `CC1=C(C(=O)OCc2ccc(C)cc2)C(c2ccccc2)NC(=O)N1` (stereo not shown) was > 10 µM; that for `CCCOC(=O)C1=C(C)NC(=O)NC1c1cccc(Cl)c1` (stereo not shown) was > 10 µM; that for `CC1=C(C(=O)OCC(F)(F)F)C(c2ccc(Br)cc2)NC(=O)N1` (stereo not shown) was > 10 µM.

Turning to `CCc1ccc(C2NC(=O)NC(C)=C2C(=O)OC2CCCC2)cc1` (stereo not shown), the IC50 is > 10 µM. The value for `CC1=C(C(=O)OCc2ccccc2)C(c2ccc(F)cc2)NC(=O)N1` (stereo not shown) was > 10 µM. For the compound `CC1=C(C(=O)OCc2ccc(C)cc2)C(c2ccccc2F)NC(=O)N1` (stereo not shown), the IC50 was > 10 µM. Turning to `COC(C)OC(=O)C1=C(C)NC(=O)NC1c1cccc(Cl)c1Cl` (stereo not shown), the IC50 is > 10 µM. The value for `CC1=C(C(=O)OC2CCCCCC2)C(c2cccc(Cl)c2)NC(=O)N1` (stereo not shown) was > 10 µM.

With `CC1=C(C(=O)OCc2ccccc2)C(c2cccc(Cl)c2)NC(=O)N1` (stereo not shown), the concentration for half-maximal inhibition (IC50) is > 10 µM.

On to `CC1=C(C(=O)OC(C)C(C)C)C(c2ccc(C)cc2)NC(=O)N1` (stereo not shown), for which the IC50 is > 10 µM.

As to `CC1=C(C(=O)OCc2ccc(C)cc2)C(c2ccc(N(C)C)cc2)NC(=O)N1` (stereo not shown), the IC50 was > 10 µM. In the case of `CCOC(=O)C1=C(C)NC(=O)NC1c1ccccc1C` (stereo not shown), the half-inhibitory concentration (IC50) is > 10 µM. The value for `COC(=O)C1=C(C)N(C)C(=O)N(C)C1c1cccc([N+](=O)[O-])c1` (stereo not shown) was > 10 µM; that for `CCOC(=O)C1=C(C)NC(=O)NC1c1ccc(F)cc1F` (stereo not shown) was > 10 µM. The value for `CCOC(=O)C1=C(C)N(CC)C(=O)NC1c1ccccc1Cl` (stereo not shown) was ≥ 20 µM; that for `CCN1C(=O)NC(c2ccc(Br)cc2)C(C(=O)OC(C)C)=C1C` (stereo not shown) was ≤ 5 µM.

Consider `CCCC1=C(C(=O)OCC)C(c2ccc(Br)cc2)NC(=O)N1` (stereo not shown), for which the IC50 is ≥ 30 µM. For the compound `CCOC(=O)C1=C(c2ccccc2)NC(=O)NC1c1ccc(CC)cc1` (stereo not shown), the IC50 was ≤ 10 µM.

As for `CCCC1=C(C(=O)OCC)C(c2ccc(CC)cc2)NC(=O)N1` (stereo not shown), the IC50 was > 10 µM. As to `CCCC1=C(C(=O)OCC)C(c2ccc(Cl)cc2Cl)NC(=O)N1` (stereo not shown), the IC50 is > 10 µM. The value for `CC1=C(C(=O)OCC(C)C)C(c2ccc([N+](=O)[O-])cc2)NC(=O)N1C` (stereo not shown) was ≤ 5 µM.

`CC1=C(C(=O)OC2CCCC2)C(c2ccccc2Cl)NC(=O)N1C` (stereo not shown): the concentration for half-maximal inhibition (IC50) is > 10 µM. The value for `COCCOC(=O)C1=C(C)NC(=S)NC1c1ccc(F)cc1` (stereo not shown) was ≤ 5 µM; that for `COCCOC(=O)C1=C(C)NC(=S)NC1c1ccc(Br)cc1` (stereo not shown) was > 10 µM; that for `COCCOC(=O)C1=C(C)NC(=S)NC1c1cccc(Br)c1` (stereo not shown) was > 10 µM. The value for `CCOC(=O)C1=C(C)NC(=O)NC1c1ccc(SC)cc1` (stereo not shown) was > 10 µM; that for `COC(=O)C1=C(C)N(C)C(=S)NC1c1ccc(OC)cc1` (stereo not shown) was ≥ 30 µM. The value for `COc1ccc(C2NC(=S)N(C)C(C)=C2C(=O)Nc2ccccc2)cc1` (stereo not shown) was > 10 µM; that for `COC(=O)C1=C(C)N(C)C(=S)NC1c1cccc(OC)c1` (stereo not shown) was ≥ 20 µM.

Turning to `COC(=O)C1=C(C)N(C)C(=S)NC1c1ccc(Cl)cc1` (stereo not shown), the IC50 is ≤ 10 µM. For `CC1=C(C(=O)OC(C)C)C(c2ccc(C(C)C)cc2)NC(=O)N1` (stereo not shown) the value was > 10 µM; for `CCOC(=O)C1=C(C)NC(=S)NC1c1ccc(OC(C)C)cc1` (stereo not shown), > 10 µM; for `COC(=O)C1=C(C)NC(=S)NC1c1ccc(OC(C)C)cc1` (stereo not shown), > 10 µM. For `CC1=C(C(=O)N2CCOCC2)C(c2cccc(Cl)c2)NC(=O)N1` (stereo not shown) the value was > 10 µM; for `CC1=C(C(=O)OC(C)C)C(c2ccc(Cl)cc2)NC(=S)N1` (stereo not shown), > 10 µM; for `COC(=O)C1=C(C)NC(=S)NC1c1cc(OC)ccc1Br` (stereo not shown), ≤ 5 µM.

As to `CCOC(=O)C1=C(C)N(C)C(=O)NC1c1cccc(Cl)c1Cl` (stereo not shown), the 50% inhibitory concentration (IC50) was > 10 µM.
